Data from ChEMBL document CHEMBL1201861, “Genomics of Drug Sensitity in Cancer screening data, Wellcome Trust Sanger Institute”.

How the values were obtained:
Assay in all cases: cells
Assay type in all cases: functional, cell-based, Homo sapiens
[1] = system: GAMG; details: Homo sapiens, GAMG;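 further: cell growth inhibition measured by a viability assay in the GAMG human cell line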
Description: SANGER: Inhibition of human GAMG cell growth in a cell viability assay.

[2] = system: MDA-MB-361; details: Homo sapiens, MDA-MB-361
[3] = system: NCI-H2029; details: Homo sapiens, NCI-H2029;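 further: Read-out is a viability assay on the cultured cells, and IC50 is the concentration that suppresses cell growth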
Description: SANGER: Inhibition of human NCI-H2029 cell growth in a cell viability assay.

[4] = system: TE-10; details: Homo sapiens, TE-10;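 further: growth inhibition of TE-10 cells, measured by a cell viability assay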
Description: SANGER: Inhibition of human TE-10 cell growth in a cell viability assay.

[5] = system: D-247MG; details: Homo sapiens, D-247MG
Description: SANGER: Inhibition of human D-247MG cell growth in a cell viability assay.

[6] = system: NCI-H720; details: Homo sapiens, NCI-H720;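 further: growth inhibition of human NCI-H720 cells determined by a cell viability assay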
Description: SANGER: Inhibition of human NCI-H720 cell growth in a cell viability assay.

[7] = system: HC-1; details: Homo sapiens, HC-1;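 further: growth inhibition of HC-1 cells measured by a cell viability assay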
Description: SANGER: Inhibition of human HC-1 cell growth in a cell viability assay.

[8] = system: SCC-15; details: Homo sapiens, SCC-15;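 further: growth inhibition of SCC-15 cells, read out with a cell viability assay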
Description: SANGER: Inhibition of human SCC-15 cell growth in a cell viability assay.

[9] = system: D-423MG; details: Homo sapiens, D-423MG
Description: SANGER: Inhibition of human D-423MG cell growth in a cell viability assay.

[10] = system: 5637; details: Homo sapiens
Description: SANGER: Inhibition of human 5637 cell growth in a cell viability assay.

[11] = system: 647-V; details: Homo sapiens, 647-V;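 further: growth inhibition of 647-V cells, read out with a cell viability assay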
Description: SANGER: Inhibition of human 647-V cell growth in a cell viability assay.

[12] = system: DMS-114; details: Homo sapiens, DMS-114
[13] = system: AN3-CA; details: Homo sapiens, AN3-CA;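 further: growth inhibition of human AN3-CA cells measured by a cell viability assay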
Description: SANGER: Inhibition of human AN3-CA cell growth in a cell viability assay.

[14] = system: BXPC-3; details: Homo sapiens, BXPC-3;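 further: growth inhibition of human BxPC-3 cells, read out by a cell viability assay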
Description: SANGER: Inhibition of human BxPC-3 cell growth in a cell viability assay.

[15] = system: ABC-1; details: Homo sapiens, ABC-1;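 further: growth inhibition of human ABC-1 cells, read out by a cell viability assay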
Description: SANGER: Inhibition of human ABC-1 cell growth in a cell viability assay.

[16] = system: YAPC; details: Homo sapiens, YAPC;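 further: growth inhibition of YAPC cells, measured with a cell viability assay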
Description: SANGER: Inhibition of human YAPC cell growth in a cell viability assay.

[17] = system: D283 Med; details: Homo sapiens, D283 Med
Description: SANGER: Inhibition of human D-283MED cell growth in a cell viability assay.

[18] = system: NCI-H747; details: Homo sapiens, NCI-H747;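 further: growth inhibition of human NCI-H747 cells, read out by a cell viability assay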
Description: SANGER: Inhibition of human NCI-H747 cell growth in a cell viability assay.

[19] = system: IA-LM; details: Homo sapiens, IA-LM;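 further: cell viability assay measuring growth inhibition of human IA-LM cells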
Description: SANGER: Inhibition of human IA-LM cell growth in a cell viability assay.

[20] = system: NCI-H1755; details: Homo sapiens, NCI-H1755;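 further: cell viability readout used to measure growth inhibition of NCI-H1755 cells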
Description: SANGER: Inhibition of human NCI-H1755 cell growth in a cell viability assay.

[21] = system: NCI-H2122; details: Homo sapiens, NCI-H2122;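 further: growth inhibition of the cells, read out with a cell viability assay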
Description: SANGER: Inhibition of human NCI-H2122 cell growth in a cell viability assay.

[22] = system: A498; details: Homo sapiens, A498;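 further: growth inhibition of human A498 cells, read out with a cell viability assay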
Description: SANGER: Inhibition of human A498 cell growth in a cell viability assay.

[23] = system: ES1; details: Homo sapiens, ES1;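 further: growth inhibition of ES1 cells, read out with a cell viability assay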
Description: SANGER: Inhibition of human ES1 cell growth in a cell viability assay.

[24] = system: HT; details: Homo sapiens, HT
Description: SANGER: Inhibition of human HT cell growth in a cell viability assay.

[25] = system: SW780; details: Homo sapiens, SW780;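 further: growth inhibition of the cells, read out with a cell viability assay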
Description: SANGER: Inhibition of human SW780 cell growth in a cell viability assay.

[26] = system: 23132-87; details: Homo sapiens
Description: SANGER: Inhibition of human 23132-87 cell growth in a cell viability assay.

[27] = system: NCI-H1693; details: Homo sapiens, NCI-H1693;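 further: growth inhibition of the human cell line, read out with a cell viability assay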
Description: SANGER: Inhibition of human NCI-H1693 cell growth in a cell viability assay.

[28] = system: NCI-H526; details: Homo sapiens, NCI-H526;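 further: growth inhibition of the human NCI-H526 cell line, measured by a cell viability assay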
Description: SANGER: Inhibition of human NCI-H526 cell growth in a cell viability assay.

[29] = system: TE-11; details: Homo sapiens, TE-11;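 further: growth inhibition of human TE-11 cells, read out by a cell viability assay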
Description: SANGER: Inhibition of human TE-11 cell growth in a cell viability assay.

[30] = system: SK-PN-DW; details: Homo sapiens, SK-PN-DW;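 further: growth inhibition measured with a viability assay on these cells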
Description: SANGER: Inhibition of human SK-PN-DW cell growth in a cell viability assay.

[31] = system: LAN-6; details: Homo sapiens, LAN-6;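 further: growth inhibition of LAN-6 cells, determined with a cell viability assay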
Description: SANGER: Inhibition of human LAN-6 cell growth in a cell viability assay.

[32] = system: RPMI-8226; details: Homo sapiens, RPMI-8226
Description: SANGER: Inhibition of human RPMI-8226 cell growth in a cell viability assay.

[33] = system: SN12C; details: Homo sapiens, SN12C;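 further: growth inhibition of human SN12C cells, measured by a cell viability assay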
Description: SANGER: Inhibition of human SN12C cell growth in a cell viability assay.

[34] = system: S-117; details: Homo sapiens, S-117
Description: SANGER: Inhibition of human S-117 cell growth in a cell viability assay.

[35] = system: CAL-85-1; details: Homo sapiens, CAL-85-1;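 further: growth inhibition of human CAL-85-1 cells, read out with a cell viability assay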
Description: SANGER: Inhibition of human CAL-85-1 cell growth in a cell viability assay.

[36] = system: HuP-T4; details: Homo sapiens, HuP-T4;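 further: cell viability assay measuring how much HuP-T4 cell growth is inhibited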
Description: SANGER: Inhibition of human HuP-T4 cell growth in a cell viability assay.

[37] = system: MKN-7; details: Homo sapiens, MKN-7;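 further: growth inhibition of MKN-7 cells, read out with a cell viability assay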
Description: SANGER: Inhibition of human MKN7 cell growth in a cell viability assay.

[38] = system: SUP-T1; details: Homo sapiens, SUP-T1;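 further: growth inhibition of human SUP-T1 cells, read out as cell viability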
Description: SANGER: Inhibition of human SUP-T1 cell growth in a cell viability assay.

[39] = system: ARH-77; details: Homo sapiens, ARH-77;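 further: growth inhibition of ARH-77 cells, read out by a cell viability assay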
Description: SANGER: Inhibition of human ARH-77 cell growth in a cell viability assay.

[40] = system: MDA-MB-134-VI; details: Homo sapiens, MDA-MB-134-VI
Description: SANGER: Inhibition of human MDA-MB-134-VI cell growth in a cell viability assay.

[41] = system: NCI-H748; details: Homo sapiens, NCI-H748;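 further: growth inhibition of NCI-H748 cells, measured by a cell viability assay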
Description: SANGER: Inhibition of human NCI-H748 cell growth in a cell viability assay.

[42] = system: SR; details: Homo sapiens, SR
Description: SANGER: Inhibition of human SR cell growth in a cell viability assay.

[43] = system: CAL-148; details: Homo sapiens, CAL-148
Description: SANGER: Inhibition of human CAL-148 cell growth in a cell viability assay.

[44] = system: NCI-H1882; details: Homo sapiens, NCI-H1882;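 further: growth inhibition of the cell line, determined with a viability assay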
Description: SANGER: Inhibition of human NCI-H1882 cell growth in a cell viability assay.

[45] = system: U-698-M; details: Homo sapiens, U-698-M
Description: SANGER: Inhibition of human U-698-M cell growth in a cell viability assay.

[46] = system: TE-15; details: Homo sapiens, TE-15;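 further: cell viability readout of growth inhibition in TE-15 cells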
Description: SANGER: Inhibition of human TE-15 cell growth in a cell viability assay.

[47] = system: NALM-6; details: Homo sapiens, NALM-6;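 further: growth inhibition of NALM-6 cells, read out with a cell viability assay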
Description: SANGER: Inhibition of human NALM-6 cell growth in a cell viability assay.

[48] = system: Daudi; details: Homo sapiens, Daudi;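 further: growth inhibition of Daudi cells, read out by a viability assay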
Description: SANGER: Inhibition of human Daudi cell growth in a cell viability assay.

[49] = system: NCI-H524; details: Homo sapiens, NCI-H524;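 further: growth inhibition of human NCI-H524 cells, read out through a cell viability assay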
Description: SANGER: Inhibition of human NCI-H524 cell growth in a cell viability assay.

## CN(C)C(=N)NC(=N)N [METFORMIN]
[1]
  IC50: > 20000 µM
[2]
  IC50: > 20000 µM
[3]
  IC50: 14800 µM
[4]
  IC50: > 20000 µM
[5]
  IC50: > 20000 µM
[6]
  IC50: 534 µM
[7]
  IC50: 4200 µM
[8]
  IC50: > 20000 µM
[9]
  IC50: 3260 µM
[10]
  IC50: 5300 µM
[11]
  IC50: > 20000 µM
[12]
  IC50: > 20000 µM
[13]
  IC50: > 20000 µM
[14]
  IC50: > 20000 µM
[15]
  IC50: > 20000 µM
[16]
  IC50: > 20000 µM
[17]
  IC50: > 20000 µM
[18]
  IC50: > 20000 µM
[19]
  IC50: > 20000 µM
[20]
  IC50: > 20000 µM
[21]
  IC50: > 20000 µM
[22]
  IC50: > 20000 µM
[23]
  IC50: > 20000 µM
[24]
  IC50: 11900 µM
[25]
  IC50: 12400 µM
[26]
  IC50: 11200 µM
[27]
  IC50: > 20000 µM
[28]
  IC50: 16100 µM
[29]
  IC50: > 20000 µM

## CCN(CC)CCCCNc1ncc2cc(-c3cc(OC)cc(OC)c3)c(NC(=O)NC(C)(C)C)nc2n1 [PD-173074]
[1]
  IC50: > 2 µM
[2]
  IC50: > 2 µM
[30]
  IC50: > 2 µM
[3]
  IC50: > 2 µM
[4]
  IC50: > 2 µM
[5]
  IC50: > 2 µM
[6]
  IC50: > 2 µM
[31]
  IC50: > 2 µM
[8]
  IC50: > 2 µM
[9]
  IC50: > 2 µM
[32]
  IC50: > 2 µM
[10]
  IC50: > 2 µM
[11]
  IC50: > 2 µM
[12]
  IC50: 1.37 µM
[33]
  IC50: > 2 µM
[13]
  IC50: 0.401 µM
[14]
  IC50: > 2 µM
[15]
  IC50: > 2 µM
[16]
  IC50: > 2 µM
[17]
  IC50: > 2 µM
[18]
  IC50: > 2 µM
[19]
  IC50: > 2 µM
[20]
  IC50: > 2 µM
[34]
  IC50: > 2 µM
[21]
  IC50: > 2 µM
[22]
  IC50: > 2 µM
[35]
  IC50: > 2 µM
[23]
  IC50: > 2 µM
[36]
  IC50: > 2 µM
[24]
  IC50: > 2 µM
[37]
  IC50: > 2 µM
[25]
  IC50: > 2 µM
[27]
  IC50: > 2 µM
[28]
  IC50: > 2 µM
[29]
  IC50: > 2 µM

## COc1cc2c(Nc3ccc(NC(=O)c4ccccc4)cc3)ncnc2cc1OCCCN1CCOCC1
[1]
  IC50: > 4 µM
[2]
  IC50: > 4 µM
[30]
  IC50: > 4 µM
[3]
  IC50: > 4 µM
[4]
  IC50: > 4 µM
[5]
  IC50: > 4 µM
[6]
  IC50: 1.21 µM
[31]
  IC50: > 4 µM
[8]
  IC50: 3.73 µM
[9]
  IC50: > 4 µM
[32]
  IC50: > 4 µM
[10]
  IC50: > 4 µM
[11]
  IC50: > 4 µM
[12]
  IC50: > 4 µM
[33]
  IC50: > 4 µM
[13]
  IC50: > 4 µM
[14]
  IC50: > 4 µM
[15]
  IC50: 1.4 µM
[16]
  IC50: > 4 µM
[17]
  IC50: > 4 µM
[18]
  IC50: 2.03 µM
[19]
  IC50: > 4 µM
[20]
  IC50: > 4 µM
[34]
  IC50: > 4 µM
[21]
  IC50: > 4 µM
[22]
  IC50: 2.37 µM
[35]
  IC50: > 4 µM
[23]
  IC50: 1.77 µM
[36]
  IC50: > 4 µM
[24]
  IC50: > 4 µM
[37]
  IC50: > 4 µM
[25]
  IC50: 3.06 µM
[27]
  IC50: > 4 µM
[28]
  IC50: > 4 µM
[29]
  IC50: 0.537 µM

## Cn1cnc2c(F)c(Nc3ccc(Br)cc3Cl)c(C(=O)NOCCO)cc21 [SELUMETINIB]
[1]
  IC50: > 4 µM
[2]
  IC50: > 4 µM
[30]
  IC50: > 4 µM
[3]
  IC50: > 4 µM
[4]
  IC50: > 4 µM
[5]
  IC50: > 4 µM
[6]
  IC50: > 4 µM
[31]
  IC50: 2.83 µM
[8]
  IC50: > 4 µM
[9]
  IC50: > 4 µM
[32]
  IC50: 0.74 µM
[10]
  IC50: > 4 µM
[11]
  IC50: > 4 µM
[12]
  IC50: > 4 µM
[33]
  IC50: 3.96 µM
[13]
  IC50: > 4 µM
[14]
  IC50: > 4 µM
[15]
  IC50: > 4 µM
[16]
  IC50: > 4 µM
[17]
  IC50: > 4 µM
[18]
  IC50: 0.351 µM
[19]
  IC50: > 4 µM
[20]
  IC50: > 4 µM
[34]
  IC50: > 4 µM
[21]
  IC50: > 4 µM
[22]
  IC50: > 4 µM
[35]
  IC50: > 4 µM
[23]
  IC50: > 4 µM
[36]
  IC50: 0.195 µM
[24]
  IC50: > 4 µM
[37]
  IC50: > 4 µM
[25]
  IC50: 0.666 µM
[27]
  IC50: > 4 µM
[28]
  IC50: > 4 µM
[29]
  IC50: > 4 µM

## N#Cc1c(O)c2c(-c3ccc(-c4ccccc4O)cc3)csc2[nH]c1=O
[38]
  IC50: 0.265 µM
[1]
  IC50: > 1.02 µM
[2]
  IC50: 0.86 µM
[30]
  IC50: > 1.02 µM
[4]
  IC50: > 1.02 µM
[39]
  IC50: 0.141 µM
[5]
  IC50: > 1.02 µM
[6]
  IC50: > 1.02 µM
[7]
  IC50: 0.0831 µM
[31]
  IC50: > 1.02 µM
[8]
  IC50: > 1.02 µM
[32]
  IC50: 0.246 µM
[10]
  IC50: > 1.02 µM
[11]
  IC50: > 1.02 µM
[12]
  IC50: > 1.02 µM
[33]
  IC50: > 1.02 µM
[13]
  IC50: > 1.02 µM
[14]
  IC50: > 1.02 µM
[15]
  IC50: > 1.02 µM
[40]
  IC50: > 1.02 µM
[16]
  IC50: > 1.02 µM
[17]
  IC50: 0.386 µM
[41]
  IC50: > 1.02 µM
[18]
  IC50: > 1.02 µM
[19]
  IC50: > 1.02 µM
[20]
  IC50: > 1.02 µM
[42]
  IC50: 0.114 µM
[34]
  IC50: > 1.02 µM
[21]
  IC50: > 1.02 µM
[43]
  IC50: 0.223 µM
[22]
  IC50: > 1.02 µM
[35]
  IC50: > 1.02 µM
[23]
  IC50: > 1.02 µM
[44]
  IC50: 0.409 µM
[45]
  IC50: 0.219 µM
[36]
  IC50: > 1.02 µM
[24]
  IC50: 0.335 µM
[46]
  IC50: > 1.02 µM
[47]
  IC50: 0.0317 µM
[37]
  IC50: > 1.02 µM
[25]
  IC50: > 1.02 µM
[26]
  IC50: > 1.02 µM
[27]
  IC50: > 1.02 µM
[48]
  IC50: 0.0498 µM
[28]
  IC50: 0.468 µM
[29]
  IC50: > 1.02 µM
[49]
  IC50: > 1.02 µM

## CC1(C)CNc2cc(NC(=O)c3cccnc3NCc3ccncc3)ccc21 [MOTESANIB]
[1]
  IC50: > 2 µM
[2]
  IC50: > 2 µM
[30]
  IC50: > 2 µM
[3]
  IC50: > 2 µM
[4]
  IC50: > 2 µM
[5]
  IC50: > 2 µM
[6]
  IC50: > 2 µM
[31]
  IC50: > 2 µM
[8]
  IC50: > 2 µM
[9]
  IC50: > 2 µM
[32]
  IC50: > 2 µM
[10]
  IC50: > 2 µM
[11]
  IC50: > 2 µM
[12]
  IC50: > 2 µM
[33]
  IC50: > 2 µM
[13]
  IC50: > 2 µM
[14]
  IC50: > 2 µM
[15]
  IC50: > 2 µM
[16]
  IC50: > 2 µM
[17]
  IC50: > 2 µM
[18]
  IC50: > 2 µM
[19]
  IC50: > 2 µM
[20]
  IC50: > 2 µM
[34]
  IC50: > 2 µM
[21]
  IC50: > 2 µM
[22]
  IC50: > 2 µM
[35]
  IC50: > 2 µM
[23]
  IC50: > 2 µM
[36]
  IC50: > 2 µM
[24]
  IC50: > 2 µM
[37]
  IC50: > 2 µM
[25]
  IC50: > 2 µM
[27]
  IC50: > 2 µM
[28]
  IC50: > 2 µM
[29]
  IC50: > 2 µM
